Among the targets are Cytochrome P450 3A4 (Homo sapiens, UniProt P08684); Cytochrome P450 2D6 (Homo sapiens, UniProt P10635); Cytochrome P450 2C9 (Homo sapiens, UniProt P11712).
The target of assay [1] is FAD-linked sulfhydryl oxidase ALR (Homo sapiens, UniProt P55789). In words: inhibitors of human ALR sulfhydryl oxidase, dose response, biochemical, H2O2 detection, luminescence, cherry-pick (AID 493248).
For the next assay, the system named is H9c2. Briefly: cells. The format is functional, cell-based. Conditions: Rattus norvegicus, H9c2, Myocardium.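 Note: confirmatory concentration-response retest of ultra-high-throughput screening hits for modulation of myocardial damage; cell death induced by hydrogen peroxide oxidative stress; compound pretreatment for 60 min then peroxide exposure for 2 h; potency is for protecting the cells against peroxide damage rather than for killing them.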
Assay [2] in a line: P. falciparum Dd2 growth inhibitors, dose response, SYBR Green, cherry-picked samples (AID 1159567). It counts as functional, cell-based.
Assay [3] can be described thus: HEp-2 cell cytotoxicity, dose response, cytotoxicity control for RSV inhibitor project, HTS (AID 2410). It counts as functional. Conditions: human respiratory syncytial virus.
The nature of assay [4]: NIH-3T3 fibroblast cytotoxicity, dose response, cytotoxicity control, cell-based, fluorescence, Alamar Blue, secondary assay (AID 2327).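 Note: NIH-3T3 mouse fibroblasts cultured with fluconazole at 8 µg/mL.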 The format is functional.
Assay [5] can be described thus: C. albicans growth with fluconazole, confirmation, fluorescence, retest (AID 2467). It counts as functional, cell-based.
A short description of assay [6]: cytotoxicity toward NIH3T3 fibroblasts, dose response, counter-screen, cell-based, ATP luminescence, mouse fibroblasts (AID 2010).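 Note: cells exposed to compound for about 90 hours before reading.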 The format is functional.
A short description of assay [7]: inhibitors of intracellular T. cruzi replication, confirmation, NIH3T3 host cells, beta-gal luminescence (AID 2044).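 Note: intracellular parasites grown in NIH/3T3 mouse fibroblasts as host cells; luminescent beta-galactosidase reporter signal from transgenic T. cruzi replicating inside host cells; inhibitors lower the luminescence signal.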 It counts as functional, cell-based.
The target of another assay is Cytochrome P450 2C19 (Homo sapiens, UniProt P33261). Briefly: Cytochrome panel assay with activity outcomes. Panel member name: p450-cyp2c19 Compounds with AC50 equal or less than 10 uM are considered active. It counts as functional. As to conditions: read-out: AC50.
Cytochrome P450 2C19, sequence (P33261 whole entry): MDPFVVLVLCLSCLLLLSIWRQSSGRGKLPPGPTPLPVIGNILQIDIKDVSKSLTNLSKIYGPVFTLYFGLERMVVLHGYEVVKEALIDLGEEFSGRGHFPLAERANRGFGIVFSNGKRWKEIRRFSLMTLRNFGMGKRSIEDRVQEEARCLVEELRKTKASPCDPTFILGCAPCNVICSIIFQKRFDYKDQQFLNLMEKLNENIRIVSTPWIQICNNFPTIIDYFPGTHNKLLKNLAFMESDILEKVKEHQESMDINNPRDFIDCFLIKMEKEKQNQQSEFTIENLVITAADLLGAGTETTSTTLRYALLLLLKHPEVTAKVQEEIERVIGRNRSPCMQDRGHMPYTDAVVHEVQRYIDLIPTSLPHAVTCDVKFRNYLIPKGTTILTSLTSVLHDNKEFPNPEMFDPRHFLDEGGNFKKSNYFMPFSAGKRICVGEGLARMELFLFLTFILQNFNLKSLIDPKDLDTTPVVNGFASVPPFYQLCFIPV
For assay [8], the target named is T1, Rac GTPase-activating protein 1 (Homo sapiens, UniProt Q9H0H5).
T1 sequence (Q9H0H5 whole entry): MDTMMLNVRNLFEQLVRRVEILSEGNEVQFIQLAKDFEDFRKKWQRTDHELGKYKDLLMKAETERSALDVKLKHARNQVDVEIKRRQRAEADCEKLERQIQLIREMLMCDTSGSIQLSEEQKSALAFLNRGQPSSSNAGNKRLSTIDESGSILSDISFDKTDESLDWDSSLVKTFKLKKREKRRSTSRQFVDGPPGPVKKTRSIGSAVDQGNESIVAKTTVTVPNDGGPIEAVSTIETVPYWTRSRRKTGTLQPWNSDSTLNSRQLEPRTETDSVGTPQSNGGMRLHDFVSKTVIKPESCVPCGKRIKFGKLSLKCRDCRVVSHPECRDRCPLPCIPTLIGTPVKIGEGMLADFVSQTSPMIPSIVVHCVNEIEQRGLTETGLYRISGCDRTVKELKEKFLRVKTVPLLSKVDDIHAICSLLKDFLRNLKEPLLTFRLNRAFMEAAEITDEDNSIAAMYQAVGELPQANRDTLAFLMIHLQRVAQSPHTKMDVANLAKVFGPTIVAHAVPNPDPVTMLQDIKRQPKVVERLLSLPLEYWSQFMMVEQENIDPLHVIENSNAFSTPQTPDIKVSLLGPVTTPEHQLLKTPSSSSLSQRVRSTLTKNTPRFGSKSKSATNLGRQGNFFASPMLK
Briefly: MgcRacGAP GTPase-activating activity inhibitors, confirmation, biochemical, ADP Hunter fluorescence, primary and confirmatory (AID 624330). The format is functional.

A further assay has as its target T2, Cytochrome P450 1A2 (Homo sapiens, UniProt P05177).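 Note: PubChem cytochrome P450 panel assay, CYP1A2 panel member.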
T2 sequence (P05177 whole entry): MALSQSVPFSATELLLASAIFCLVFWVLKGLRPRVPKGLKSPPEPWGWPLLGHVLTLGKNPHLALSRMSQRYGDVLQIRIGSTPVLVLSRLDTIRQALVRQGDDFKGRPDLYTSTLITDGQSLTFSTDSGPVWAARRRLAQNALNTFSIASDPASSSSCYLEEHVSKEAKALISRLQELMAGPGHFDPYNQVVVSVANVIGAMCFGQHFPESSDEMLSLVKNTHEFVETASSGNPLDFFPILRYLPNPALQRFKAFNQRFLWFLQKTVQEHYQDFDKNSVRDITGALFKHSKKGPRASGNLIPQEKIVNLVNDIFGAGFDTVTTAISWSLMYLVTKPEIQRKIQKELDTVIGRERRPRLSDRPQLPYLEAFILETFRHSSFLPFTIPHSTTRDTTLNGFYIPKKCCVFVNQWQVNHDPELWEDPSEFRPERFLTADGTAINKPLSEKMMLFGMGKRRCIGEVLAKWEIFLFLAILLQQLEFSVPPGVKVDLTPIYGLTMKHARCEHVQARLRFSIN

A further assay has as its system INS1. In words: beta cell apoptosis inhibitors, cytokine rescue, dose response, luminescence, retest (AID 449756).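 Note: cell death triggered by IL-1 beta plus TNF-alpha plus IFN-gamma mixture; protective hits raise ATP signal compared with cytokine alone wells.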 It counts as functional, cell-based. As to conditions: Rattus norvegicus.

Active and inactive are the calls of the source. A value given as a limit tells only on which side of the number the result lay.

FAD-linked sulfhydryl oxidase ALR, sequence (P55789 whole entry): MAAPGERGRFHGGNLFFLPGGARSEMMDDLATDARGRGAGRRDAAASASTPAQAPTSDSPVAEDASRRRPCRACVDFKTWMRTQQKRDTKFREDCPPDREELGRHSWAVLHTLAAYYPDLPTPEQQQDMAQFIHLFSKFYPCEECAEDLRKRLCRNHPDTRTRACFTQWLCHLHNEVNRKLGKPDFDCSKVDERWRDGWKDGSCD
Cytochrome P450 3A4, sequence (P08684 whole entry): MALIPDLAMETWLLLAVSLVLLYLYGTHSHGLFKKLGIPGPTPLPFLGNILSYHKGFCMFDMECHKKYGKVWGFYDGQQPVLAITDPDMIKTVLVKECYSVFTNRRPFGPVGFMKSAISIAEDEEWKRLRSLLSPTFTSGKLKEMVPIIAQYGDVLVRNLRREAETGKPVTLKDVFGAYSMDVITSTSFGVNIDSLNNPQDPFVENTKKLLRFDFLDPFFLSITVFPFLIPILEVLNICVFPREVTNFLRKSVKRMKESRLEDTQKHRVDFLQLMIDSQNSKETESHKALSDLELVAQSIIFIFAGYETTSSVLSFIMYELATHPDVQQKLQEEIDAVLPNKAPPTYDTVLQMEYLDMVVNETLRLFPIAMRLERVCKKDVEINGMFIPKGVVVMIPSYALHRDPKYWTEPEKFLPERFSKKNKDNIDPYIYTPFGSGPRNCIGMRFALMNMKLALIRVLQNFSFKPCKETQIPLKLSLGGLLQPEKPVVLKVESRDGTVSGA
Cytochrome P450 2C9, sequence (P11712 whole entry): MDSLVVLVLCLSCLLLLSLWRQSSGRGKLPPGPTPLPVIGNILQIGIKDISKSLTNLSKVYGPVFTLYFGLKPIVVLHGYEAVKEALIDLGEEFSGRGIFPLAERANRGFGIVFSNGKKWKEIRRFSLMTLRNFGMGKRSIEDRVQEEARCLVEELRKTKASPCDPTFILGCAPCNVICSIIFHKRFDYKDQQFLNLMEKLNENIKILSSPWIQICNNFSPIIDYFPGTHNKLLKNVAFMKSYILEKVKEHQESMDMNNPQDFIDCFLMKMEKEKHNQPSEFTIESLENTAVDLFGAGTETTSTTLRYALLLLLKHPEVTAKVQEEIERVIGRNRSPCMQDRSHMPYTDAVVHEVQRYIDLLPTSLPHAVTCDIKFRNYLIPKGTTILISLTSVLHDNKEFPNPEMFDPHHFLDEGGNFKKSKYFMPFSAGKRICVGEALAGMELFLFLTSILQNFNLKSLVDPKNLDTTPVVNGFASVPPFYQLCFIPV
Cytochrome P450 2D6, sequence (P10635 whole entry): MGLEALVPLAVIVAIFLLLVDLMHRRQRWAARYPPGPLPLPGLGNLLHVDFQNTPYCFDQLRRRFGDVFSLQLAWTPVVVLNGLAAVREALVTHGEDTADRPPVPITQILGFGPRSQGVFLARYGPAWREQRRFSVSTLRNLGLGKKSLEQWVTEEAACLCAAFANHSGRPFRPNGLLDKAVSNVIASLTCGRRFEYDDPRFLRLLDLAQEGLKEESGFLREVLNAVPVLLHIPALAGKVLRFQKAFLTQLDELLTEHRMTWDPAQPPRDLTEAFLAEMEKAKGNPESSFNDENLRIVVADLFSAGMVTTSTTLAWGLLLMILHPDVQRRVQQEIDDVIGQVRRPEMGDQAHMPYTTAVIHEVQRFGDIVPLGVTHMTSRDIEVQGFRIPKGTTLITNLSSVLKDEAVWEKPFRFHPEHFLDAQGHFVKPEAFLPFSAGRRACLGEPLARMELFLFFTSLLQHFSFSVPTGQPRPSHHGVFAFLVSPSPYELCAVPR

For `COC(=O)[C@H](Cc1ccccc1)NC(=O)N1CCN(c2ccc(F)cc2)CC1`, the AC50 in assay [1] was > 100 µM (inactive). With `Cc1cc(Nc2ccccc2C(=O)O)nc2nc3ccccc3c(=O)n12`, in the assay with H9c2, the IC50 is 14.2 µM (active). With `CC(C)(C)[S@+]([O-])N1Cc2cc(C(=O)N[C@H]3CCN(Cc4ccccc4)C3)nc(-c3cccc(-c4ccncc4)c3)c2[C@@H]1CCO`, the AC50 in assay [2] is 6.19 µM (active). Take `O=C(N(c1ccccc1)c1ccccc1)N(c1ccccc1)c1ccccc1`: in [3], the CC50 was 17 µM (active).

As for `CO[C@@H]1CN(C)C(=O)c2ccc(NC(=O)Nc3ccc(C(F)(F)F)cc3)cc2OC[C@@H](C)NC[C@@H]1C`, the half-maximal activity concentration (AC50) in assay [2] was 4.23 µM (active). `CCc1nn(CCCC(=O)NCc2ccc(C)cc2)c(=O)c2cc3occc3n12`: the results for the EC50 in [4] and in assay [5] were > 160 µM (inconclusive) and > 38 µM (not active), respectively. With `COc1cccc(-c2cc3nc(-c4ccccc4)cc(N4CCC5(CC4)OCCO5)n3n2)c1`, the EC50 was > 30 µM (not active) in assay [6] and 1.82 µM (active) in [7]. Moreover, the figures for the concentration at half-maximal activity (AC50) at Cytochrome P450 3A4 and at Cytochrome P450 2C19 were 20 µM (inconclusive) and 2 µM (inconclusive), respectively. In the case of `O=C(COc1cccc2c1CCNC2=O)Nc1ccc(Cl)cc1`, in the assay with H9c2, the IC50 is 11.6 µM (active). Turning to `COc1cccc(C(=O)Nc2c(C(N)=O)oc3ccccc23)c1`, the IC50 in the assay on H9c2 is > 79 µM (inactive). Still for that read-out and setting: next, `COC(=O)c1cc(C(=O)OCC(=O)N2c3ccccc3NC(=O)C2(C)C)cc([N+](=O)[O-])c1`: 10.8 µM (active).

Take `CCCCC(NC(=O)Cc1c(C)c2cc3c(C)c(C)oc3c(C)c2oc1=O)C(=O)O` (centres undefined): the AC50 in assay [1] was > 100 µM (inactive). As to `Oc1c(Br)cc(Br)cc1/C=N/c1ccc2c(c1)OCCO2`, the IC50 was 119 µM (active) in [8] and 17.6 µM (active) in the assay on H9c2.

In the case of `Cc1ccc(C(=O)OCC(=O)Nc2sccc2C(N)=O)cc1NC(=O)c1ccco1`, the IC50 in the assay on H9c2 is > 79 µM (inactive). As to `COc1ccc(Cl)cc1NC(=O)CN(C)C(=O)Cc1nnc(O)c2ccccc12`, the IC50 with H9c2 is > 79 µM (inactive).

As to `O=C1N=C(NO)S/C1=C\c1ccccc1-n1cccn1`, the AC50 in assay [1] was 4.82 µM (active). For `Nc1nc(Cc2ccccc2)nc(Cc2ccccc2)c1-c1ccccc1`, the AC50 was 3.16 µM (inconclusive) at Cytochrome P450 2D6; 1 µM (inconclusive) on Cytochrome P450 1A2; 3.16 µM (inconclusive) on Cytochrome P450 2C9; 3.16 µM (inconclusive) at Cytochrome P450 3A4; 6.31 µM (inconclusive) at Cytochrome P450 2C19. As to `CN(C(=O)CSc1nnc(-c2ccco2)o1)C1CCCCC1`, the EC50 is > 160 µM (inactive) in assay [4] and 5.16 µM (active) in [5]. As to `O=C(Nc1cccs1)NC1CCCC1`, the AC50 in assay [1] is 1.83 µM (active). As to `N#Cc1ccc(NC(=O)CN2C(=O)NC3(CCCCCCC3)C2=O)cc1Cl`, the CC50 in assay [3] is 30.3 µM (active). As to `CCN(CC)c1ccc(NC(=O)C2=CCN(S(=O)(=O)c3ccc(F)cc3)CC2)c(C)c1`, the AC50 in assay [1] was 5.05 µM (active). On to `O=S(=O)(c1ccc(F)cc1)N1CCC(c2nc(O)c3nnn(Cc4ccc5c(c4)OCCO5)c3n2)CC1`, for which the CC50 in assay [3] was 19.6 µM (active).

Take `COc1ccc(N(C)S(=O)(=O)c2cccc(C(=O)Nc3nc(C)cs3)c2)cc1`: in assay [1], the AC50 is 1.2 µM (active). `Cc1cccc(C)c1NC(=O)c1c(C)nn(-c2ccccc2)c1Cl`: the 50% cytotoxic concentration (CC50) in [3] is 42.5 µM (active). `O=C(Nc1ccc(C(=O)N2CCCc3ccccc32)cc1)c1cccs1`: the cytotoxic concentration (CC50) in [3] is 35.4 µM (active).

In the case of `COc1ccccc1NC(=O)c1c(NC(=O)CCC(=O)O)sc2c1CCCCC2`, the AC50 in assay [1] was < 0.005 µM (active).

For `Cc1cc(-n2c(SCC(=O)Nc3ccc(F)c(F)c3)nc3nnc(C)c-3c2N)ccc1Cl`, the AC50 in the assay with INS1 is 5.57 µM (active). As for `FC(F)(F)c1nnc2ccc(N3CCCC3)nn12`, the IC50 in the assay with H9c2 is 39.7 µM (inactive). Same read-out and setting: the same measure for `N=C(NNS(=O)(=O)c1ccccc1)c1ccccn1`: 23.5 µM (active). As for `CN1c2ccc(C3=CCCCC3)cc2[C@H]2[C@H](CCN2C(=O)C2CC2)[C@@H]1CO`, the AC50 in assay [2] was 0.964 µM (active). On to `Cc1cc(Nc2ccccc2)n(-c2ccc(C(=O)O)cc2)n1`, for which, in [1], the AC50 was 1.41 µM (active). For `C[C@H](CO)N1C[C@H](C)[C@@H](CN(C)C(=O)[C@H](C)c2ccccc2)OCc2ccccc2-c2c(n(C)c3ccccc23)C1=O`, the AC50 in [2] is 4.07 µM (active). With `Cc1cc(SCC(=O)Nc2cccc(S(=O)(=O)NC3=NCCCCC3)c2)nc2ccccc12`, the half-maximal cytotoxic concentration (CC50) in [3] was 40.6 µM (active). For `CO[C@H]1CN(C)C(=O)c2cc(NC(=O)C3CC3)ccc2OC[C@H](C)N(Cc2cc(F)ccc2F)C[C@@H]1C`, the half-maximal activity concentration (AC50) in assay [2] was 6.44 µM (active).

`Cc1onc(-c2ccccc2)c1C(=O)OCC(=O)Nc1ccc(C#N)cc1`: in [3], the CC50 was 8 µM (active).

Turning to `O=C(CCCN1C(=O)c2cccc3cccc(c23)C1=O)N1CCN(c2ccc(F)cc2)CC1`, the CC50 in assay [3] is 46.2 µM (active). For the molecule `CCOC(=O)c1cccc(NC(=O)CSc2nc3ccccc3c(=O)n2CCOC)c1`, in the assay with H9c2, the IC50 was > 79 µM (inactive). The same measure, in the same setting: the same measure for `CCOc1ccc(S(=O)(=O)N(C)CCO)cc1-c1nc(O)c2c(n1)c(C(C)(C)C)nn2C`: > 79 µM (inactive). Take `O=C(C[n+]1ccccc1)N/N=C/c1cccs1`: the EC50 is > 150 µM (inactive) in assay [4] and > 38 µM (not active) in assay [5]. As to `CN1/C(=C\C(=O)C[n+]2ccc(C(=O)c3ccccc3)cc2)C(C)(C)c2ccccc21`, the EC50 is > 150 µM (inactive) in assay [4] and 3.12 µM (active) in assay [5]. In addition, the AC50 with INS1 is 2.42 µM (active). Take `COc1ccccc1Nc1nc(-c2sc(NC(=O)c3ccccc3)nc2C)cs1`: the half-maximal activity concentration (AC50) was 15.8 µM (inconclusive) at Cytochrome P450 3A4 and 3.16 µM (inconclusive) on Cytochrome P450 2C19.

As for `CC[C@H](C)[C@@H](C(=O)NCCCCCCCCCCC(=O)N1CCN(C(=O)OC(C)(C)C)CC1)n1cc(CCCCCNC(=O)OC(C)(C)C)nn1`, the concentration at half-maximal activity (AC50) in the assay on INS1 is 4.08 µM (active).

As to `COc1ccc(/N=C/c2cc(Cl)ccc2O)cc1Cl`, in the assay on H9c2, the IC50 was 17.5 µM (active). Consider `CCn1c(SCC(=O)Nc2cccc(C)c2)nc2ccccc2c1=O`, for which, in assay [3], the CC50 is > 50 µM (active).

Take `Cc1ccc2[nH]cc(CCNC(=O)c3cccs3)c2c1`: the AC50 in [1] is 26.2 µM (active). On to `CC(=O)C1=C(C)NC(SCC(=O)c2cc(Cl)ccc2Cl)=C(C#N)C1c1ccco1` (centres undefined), for which, in assay [3], the CC50 is 14.2 µM (active).

Values taken from ChEMBL document CHEMBL1201862, “PubChem BioAssay data set” (2004).
